The text below walks through data of US9980919B2, “Preparation of pH-responsive nanoparticles and promoted delivery of anticancer drugs into deep tumor tissues and application thereof” (NATIONAL TSING HUA UNIVERSITY, priority 2015, dated 2018).

Type in all cases: in vivo, C57BL/6J mice
The test system of data set [1] is TRAMP-C1 tumor. Put plainly: ICG fluorescence accumulated in organs and tumor of TRAMP-C1 tumor-bearing mice (IVIS). The settings on record: 48 hours after tail vein injection; ICG 1.6 mg/kg. The procedure: (§1) Please refer to FIGS. 12 and 14. […] To establish tumor model, 2×10^7 TRAMP-C1 cells were subcutaneously injected into the right thigh of mice. Two weeks post-inoculation, the low permeability tumor model was established. Tumor volume (V) was calculated as follows: V=L×W^2/2, where W is the tumor measurement at the widest point and L the tumor dimension at the longest point. […] The fluorescence signals of ICG (Ex. 745 nm and Em. 810 nm) at 2, 4, 6, 24 and 48 h post-injection were collected on the IVIS. The treated mice were then sacrificed and the major organs harvested for individual organ imaging by IVIS. After tail vein injection for 48 hours and observation in vivo experiments, the mouse was sacrificed and its major organs and tumors taken for detecting ICG fluorescent performance of each organ using a non-invasive in vivo imaging system (IVIS).

The test system of data set [2] is TRAMP-C1 tumor. The experiment in a line: Tumor local temperature under 808 nm NIR laser irradiation (infrared thermal imaging camera). The conditions noted are these: 6 hours post-injection; 808 nm laser 1.0 W/cm^2, 5 min; ICG 1.6 mg/kg I.V. As for the experimental part: (§2) Please refer to FIG. 15. FIG. 15 is a time—temperature figure of the pH-responsive ICG/DOX-loaded NHTPNs of an embodiment in the instant disclosure. […] 6 hours post-injection, the mice (5 in each group) were irradiated at the tumor sites with 808 nm laser (1.0 W/cm^2) for 5 min. The tumor volumes of various groups were measured daily and normalized against the original volumes to assess the antitumor efficacy. The tumor local temperature was monitored by infrared thermal imaging camera.

In data set [3] the test system is TRAMP-C1 tumor. Put plainly: Tumor growth inhibition (relative tumor volume over 15 days) in TRAMP-C1 tumor-bearing mice. The settings on record: with NIR laser (+laser). As for the experimental part:
as §1, §2

Take `CC1(C)C(/C=C/C=C/C=C/C=C2\N(CCCCS(=O)(=O)O)c3ccc4ccccc4c3C2(C)C)=[N+](CCCCS(=O)(=O)[O-])c2ccc3ccccc3c21` [Free ICG, indocyanine green]: in the data set with TRAMP-C1 tumor [1], the “ICG fluorescent expression in the tumor” value was “no fluorescent expression in the tumor” and the “organ in which the ICG fluorescence is expressed” value was “mostly expressed in the liver”. Further, the “highest temperature in the tumor” value in the data set on TRAMP-C1 tumor [2] turned out to be 41.4 °C. Also, the “tumor growth inhibition effect” value in the data set with TRAMP-C1 tumor [3] was “no significant tumor growth inhibition effect”.
